The values that follow come from US8906909B2 (Curis, Inc., priority 2009, dated 2014).

pIC50: −log10 of the molar value.

Series [1] deals with HDACs (HeLa cell nuclear extracts). The experiment in a line: HDAC enzymatic activity, Biomol Color de Lys system. Format: biochemical. Put shortly: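 IC50 from sigmoidal dose-response fits of fluorescence (Ex 350–380, Em 440–460 nm). Compounds in DMSO dilution series incubated 1 h at 25 °C with HeLa nuclear extract HDACs and colorimetric substrate, pH 8.0 Tris/Cl buffer with NaCl, KCl, MgCl2, before developer termination.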

With `O=C(CCCCCNCc1cc2nc(-c3cccc4[nH]ncc34)nc(N3CCOCC3)c2s1)NO` [Compound 43, 6-((2-(1H-indazol-4-yl)-4-morpholinothieno[3,2-d]pyrimidin-6-yl)methylamino)-N-hydroxyhexanamide], the melting point – broadly, the temperature of the solid-liquid transition – was 128 to 130 °C. In addition, the pIC50 (commonly the IC50 on a negative log10 scale, so that one unit is a factor of ten) in series [1] is over 7.00.
For `CN(CCCCCCC(=O)NO)Cc1cc2nc(-c3cccc4[nH]ncc34)nc(N3CCOCC3)c2s1` [Compound 104, 7-(((2-(1H-indazol-4-yl)-4-morpholinothieno[3,2-d]pyrimidin-6-yl)methyl)(methyl)amino)-N-hydroxyheptanamide], in that order: 131 to 133 °C and 6.00 to 7.00.
For `COc1ncc(-c2nc(N3CCOCC3)c3sc(C(C)N(C)c4ncc(C(=O)NO)cn4)cc3n2)cn1` (stereo not shown) [Compound 262, N-Hydroxy-2-((1-(2-(2-methoxypyrimidin-5-yl)-4-morpholinothieno[3,2-d]pyrimidin-6-yl)ethyl)(methyl)amino)pyrimidine-5-carboxamide], in that order: 210 to 215 °C and over 7.00.
`COCc1cccc(-c2nc(N3CCOCC3)c3sc(CN(C)c4ncc(C(=O)NO)cn4)cc3n2)c1` [Compound 139, N-hydroxy-2-(((2-(3-(methoxymethyl)phenyl)-4-morpholinothieno[3,2-d]pyrimidin-6-yl)methyl)(methyl)amino)pyrimidine-5-carboxamide] came in with a melting point of 178 to 181 °C. Besides, the negative-log IC50 (pIC50) in series [1] was over 7.00.
For `O=C(/C=C/c1ccc(NCc2cc3nc(-c4cccc5[nH]ncc45)nc(N4CCOCC4)c3s2)cc1)NO` [Compound 80, (E)-3-(4-((2-(1H-indazol-4-yl)-4-morpholinothieno[3,2-d]pyrimidin-6-yl)methylamino)phenyl)-N-hydroxyacrylamide], in that order: over 300 °C and 6.00 to 7.00.
For `Nc1ccc(-c2nc(N3CCOCC3)c3sc(CNc4ncc(C(=O)NO)cn4)cc3n2)cc1` [Compound 211, 2-((2-(4-aminophenyl)-4-morpholinothieno[3,2-d]pyrimidin-6-yl)methylamino)-N-hydroxypyrimidine-5-carboxamide], in that order: 217 to 223 °C and over 7.00.
For `CCOc1ccc(-c2nc(N3CCOCC3)c3sc(CN(C)c4ncc(C(=O)NO)cn4)cc3n2)cn1` [Compound 255, 2-(((2-(6-ethoxypyridin-3-yl)-4-morpholinothieno[3,2-d]pyrimidin-6-yl)methyl)(methyl)amino)-N-hydroxypyrimidine-5-carboxamide], in that order: 162 to 165 °C and over 7.00.
As to `O=C(CCCCCN1CCN(Cc2cc3nc(-c4cccc5[nH]ncc45)nc(N4CCOCC4)c3s2)CC1)NO` [Compound 12, 6-(4-((2-(1H-indazol-4-yl)-4-morpholinothieno[3,2-d]pyrimidin-6-yl)methyl)piperazin-1-yl)-N-hydroxyhexanamide], the melting point was 123 to 124 °C. In series [1], the negative logarithm of the IC50 (pIC50) is 6.00 to 7.00.
For `O=C(NO)c1cnc(N2CCN(Cc3cc4nc(-c5cccc6[nH]ncc56)nc(N5CCOCC5)c4s3)CC2)nc1` [Compound 14, 2-(4-((2-(1H-indazol-4-yl)-4-morpholinothieno[3,2-d]pyrimidin-6-yl)methyl)piperazin-1-yl)-N-hydroxypyrimidine-5-carboxamide], in that order: 209 to 221 °C and over 7.00.
For `CN(Cc1cc2nc(-c3ccccc3CO)nc(N3CCOCC3)c2s1)c1ncc(C(=O)NO)cn1` [Compound 141, N-hydroxy-2-(((2-(2-(hydroxymethyl)phenyl)-4-morpholinothieno[3,2-d]pyrimidin-6-yl)methyl)(methyl)amino)pyrimidine-5-carboxamide], in that order: 173 to 176 °C and over 7.00.
For `CN(Cc1cc2nc(-c3cnc(CN)nc3)nc(N3CCOCC3)c2s1)c1ncc(C(=O)NO)cn1` [Compound 124, 2-(((2-(2-(aminomethyl)pyrimidin-5-yl)-4-morpholinothieno[3,2-d]pyrimidin-6-yl)methyl)(methyl)amino)-N-hydroxypyrimidine-5-carboxamide], in that order: over 300 °C and over 7.00.
In the case of `CN(Cc1cc2nc(-c3ccc(C#N)cc3)nc(N3CCOCC3)c2s1)c1ncc(C(=O)NO)cn1` [Compound 146, 2-(((2-(4-cyanophenyl)-4-morpholinothieno[3,2-d]pyrimidin-6-yl)methyl)(methyl)amino)-N-hydroxypyrimidine-5-carboxamide], the melting point fell in the range of 214 to 216 °C. Further, the pIC50 in series [1] is over 7.00.
For `Nc1ncc(-c2nc(N3CCOCC3)c3sc(NS(=O)(=O)c4ccc(/C=C/C(=O)NO)cc4)cc3n2)cn1` [Compound 217, (E)-3-(4-(N-(2-(2-aminopyrimidin-5-yl)-4-morpholinothieno[3,2-d]pyrimidin-6-yl)sulfamoyl)phenyl)-N-hydroxyacrylamide], in that order: over 300 °C and over 7.00.
For `COc1ncc(-c2nc(N3CCOCC3)c3sc(C(C)(C)Nc4ncc(C(=O)NO)cn4)cc3n2)cn1` [Compound 263, N-Hydroxy-2-(2-(2-(2-methoxypyrimidin-5-yl)-4-morpholinothieno[3,2-d]pyrimidin-6-yl)propan-2-ylamino)pyrimidine-5-carboxamide], in that order: 202 to 207 °C and over 7.00.
For `CN(Cc1cc2nc(-c3cc[nH]c3)nc(N3CCOCC3)c2s1)c1ncc(C(=O)NO)cn1` [Compound 197, N-hydroxy-2-(methyl((4-morpholino-2-(1H-pyrrol-3-yl)thieno[3,2-d]pyrimidin-6-yl)methyl)amino)pyrimidine-5-carboxamide], in that order: 175 to 189 °C and over 7.00.
The compound `CN(Cc1cc2nc(-c3ccc(OCCN)nc3)nc(N3CCOCC3)c2s1)c1ncc(C(=O)NO)cn1` [Compound 259, 2-(((2-(6-(2-Aminoethoxy)pyridin-3-yl)-4-morpholinothieno[3,2-d]pyrimidin-6-yl)methyl)(methyl)amino)-N-hydroxypyrimidine-5-carboxamide] registered a melting point of 110 to 115 °C. Further, the negative logarithm of the IC50 (pIC50) in series [1] is over 7.00.
For `CN(Cc1cc2nc(-c3cccc4[nH]ccc34)nc(N3CCOCC3)c2s1)c1ncc(C(=O)NO)cn1` [Compound 176, 2-(((2-(1H-indol-4-yl)-4-morpholinothieno[3,2-d]pyrimidin-6-yl)methyl)(methyl)amino)-N-hydroxypyrimidine-5-carboxamide], in that order: 200 to 212 °C and over 7.00.
`CN(Cc1cc2nc(-c3ccc4[nH]c(C(F)(F)F)nc4c3)nc(N3CCOCC3)c2s1)c1ncc(C(=O)NO)cn1` [Compound 318] registered a melting point of over 300 °C. This compound also had a negative logarithm of the IC50 (pIC50) in series [1] of over 7.00.
As for `CN(C)c1ccc(-c2nc(N3CCOCC3)c3sc(CN(C)c4ncc(C(=O)NO)cn4)cc3n2)cn1` [Compound 114, 2-(((2-(6-(dimethylamino)pyridin-3-yl)-4-morpholinothieno[3,2-d]pyrimidin-6-yl)methyl)(methyl)amino)-N-hydroxypyrimidine-5-carboxamide], the melting point is 190 to 195 °C. The compound further gave a negative-log IC50 (pIC50) in series [1] of over 7.00.
For `CN(Cc1cc2nc(-c3cccc4c3CCN4)nc(N3CCOCC3)c2s1)c1ncc(C(=O)NO)cn1` [Compound 177, N-hydroxy-2-(((2-(indolin-4-yl)-4-morpholinothieno[3,2-d]pyrimidin-6-yl)methyl)(methyl)amino)pyrimidine-5-carboxamide], in that order: 146 to 156 °C and over 7.00.
For `CS(=O)(=O)N1CCN(Cc2cc3nc(-c4cccc5nn(CCCCC(=O)NO)cc45)nc(N4CCOCC4)c3s2)CC1` [Compound 7, N-hydroxy-5-(4-(6-((4-(methylsulfonyl)piperazin-1-yl)methyl)-4-morpholinothieno[3,2-d]pyrimidin-2-yl)-2H-indazol-2-yl)pentanamide], in that order: 146 to 169 °C and 6.00 to 7.00.
As to `CNc1ccc(-c2nc(N3CCOCC3)c3sc(C(C)N(C)c4ncc(C(=O)NO)cn4)cc3n2)cn1` (stereo not shown) [Compound 237, N-Hydroxy-2-(methyl(1-(2-(6-(methylamino)pyridin-3-yl)-4-morpholinothieno[3,2-d]pyrimidin-6-yl)ethyl)amino)pyrimidine-5-carboxamide], the melting point was 270 to 275 °C. The same compound showed a pIC50 in series [1] of over 7.00.
For `CN(Cc1cc2nc(-c3ccc(C(F)(F)F)cc3)nc(N3CCOCC3)c2s1)c1ncc(C(=O)NO)cn1` [Compound 202, N-hydroxy-2-(methyl((4-morpholino-2-(4-(trifluoromethyl)phenyl)thieno[3,2-d]pyrimidin-6-yl)methyl)amino)pyrimidine-5-carboxamide], in that order: 222 to 223 °C and over 7.00.
For `CC(C)c1ccc(-c2nc(N3CCOCC3)c3sc(CN(C)c4ncc(C(=O)NO)cn4)cc3n2)cc1` [Compound 148, N-hydroxy-2-(((2-(4-isopropylphenyl)-4-morpholinothieno[3,2-d]pyrimidin-6-yl)methyl)(methyl)amino)pyrimidine-5-carboxamide], in that order: 155 °C (dec.) and over 7.00.
In turn, `O=C(CCCCCCN1CCN(Cc2cc3nc(-c4cccc5[nH]ncc45)nc(N4CCOCC4)c3s2)CC1)NO` [Compound 13, 7-(4-((2-(1H-indazol-4-yl)-4-morpholinothieno[3,2-d]pyrimidin-6-yl)methyl)piperazin-1-yl)-N-hydroxyheptanamide] yielded a melting point of 119 to 122 °C. The same compound gave a pIC50 in series [1] of 6.00 to 7.00.
For `CN(Cc1cc2nc(-c3cccc4[nH]ncc34)nc(N3CCOCC3)c2s1)CC1CCN(c2ncc(C(=O)NO)cn2)CC1` [Compound 16, 2-(4-((((2-(1H-indazol-4-yl)-4-morpholinothieno[3,2-d]pyrimidin-6-yl)methyl)(methyl)amino)methyl)piperidin-1-yl)-N-hydroxypyrimidine-5-carboxamide], in that order: 174 to 175 °C and 6.00 to 7.00.
